ChEMBL document CHEMBL1132343, “Carboxylic acid analogues of tamoxifen: (Z)-2-[p-(1, 2-diphenyl-1-butenyl)phenoxy]-N,N-dimethylethylamine. Estrogen receptor affinity and estrogen antagonist effects in MCF-7 cells” (J Med Chem, 1999)

Legend:
[1] = test system: MCF7; assay: Inhibition of MCF-7 cell proliferation at 10000 nM; type: functional, Homo sapiens
[2] = target: T1, Estrogen receptor (Homo sapiens, UniProt P03372)
T1 sequence (P03372 whole entry): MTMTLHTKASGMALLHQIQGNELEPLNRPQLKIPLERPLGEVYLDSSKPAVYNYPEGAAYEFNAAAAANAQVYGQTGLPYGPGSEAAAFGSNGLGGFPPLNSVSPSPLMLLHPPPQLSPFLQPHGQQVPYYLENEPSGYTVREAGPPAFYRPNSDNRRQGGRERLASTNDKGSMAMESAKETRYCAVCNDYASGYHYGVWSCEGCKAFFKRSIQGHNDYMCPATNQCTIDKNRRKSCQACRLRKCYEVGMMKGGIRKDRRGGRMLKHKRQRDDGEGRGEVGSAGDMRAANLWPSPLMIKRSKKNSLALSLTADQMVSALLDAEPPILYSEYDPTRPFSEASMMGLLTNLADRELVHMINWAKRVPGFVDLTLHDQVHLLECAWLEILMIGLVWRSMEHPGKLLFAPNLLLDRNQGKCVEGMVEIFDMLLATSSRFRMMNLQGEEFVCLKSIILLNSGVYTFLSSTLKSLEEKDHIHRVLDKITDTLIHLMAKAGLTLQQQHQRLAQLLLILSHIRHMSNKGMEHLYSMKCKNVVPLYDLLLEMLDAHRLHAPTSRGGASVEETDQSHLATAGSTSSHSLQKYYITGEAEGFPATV
Description: Displacement of [3H]17-beta-estradiol from human estrogen receptor alpha

[3] = test system: MCF7; assay: Inhibition of MCF-7 cell proliferation at 100 nM; type: functional, Homo sapiens
[4] = test system: MCF7; assay: Inhibition of MCF-7 cell proliferation at 10 nM; type: functional, Homo sapiens
[5] = test system: MCF7; assay: Inhibition of estrogen-induced MCF-7 cell proliferation at 10000 nM; type: functional, Homo sapiens
[6] = test system: MCF7; assay: Inhibition of MCF-7 cell proliferation at 1000 nM; type: functional, Homo sapiens

Compound | Cell number [1] | IC50 [2] | Cell number [3] | Cell number [4] | Cell number [5] | Cell number [6]
CC/C(=C(/c1ccc(O)cc1)c1cccc(OCC(=O)O)c1)c1ccccc1 | 100% | > 11 nM |  |  |  | 
CC/C(=C(/c1ccc(OCC(=O)O)cc1)c1cccc(O)c1)c1ccccc1 | 52% | 1440 nM | 82% | 99% | 78% | 
CC/C(=C(\c1ccc(O)cc1)c1ccc(OCC(=O)O)cc1)c1ccccc1 | 102% | 500 nM |  |  |  | 96%
O=C(O)CCCOc1ccc(/C(=C/CCc2ccccc2)c2ccc(O)cc2)cc1 |  | 235 nM | 25% | 74% | 18% | 20%
CC[C@](C)(c1ccccc1)[C@@H](c1ccc(O)cc1)c1ccc(OCCCC(=O)O)cc1 | 68% | 6000 nM | 99% |  |  | 102%
O=C(O)CCCOc1ccc(/C(=C/CCc2ccccc2)c2cccc(O)c2)cc1 | 19% | 1700 nM | 91% | 89% | 50% | 
CC/C(=C(\c1ccccc1)c1ccc(OCCN(C)C)cc1)c1ccccc1 [TAMOXIFEN] | 24% |  | 72% | 97% | 31% | 
